In PMC2685009, “Identification and Characterization of Inhibitors of Human Apurinic/apyrimidinic Endonuclease APE1” (PLoS ONE, 2009):
Like-named read-outs stand apart in the source and are kept apart here.

Legend:
[1] = target: unlabeled double-stranded DNA substrate; assay: ThO dye-displacement assay (DNA binding); conditions: for IC50: 50 nM DNA, 250 nM ThO; for ThO displacement (in words): LOPAC dose-response profiling
APE1 [2] = target: T1, APE1 (Homo sapiens, UniProt P27695); assay: Radiotracer (32P, gel-based) incision assay; type: biochemical; conditions: for Gel: inhibition detected or not in radiotracer incision assay: APE1, 32P-labeled THF substrate
T1 construct: made in house

APE1 [3] = target: T1, APE1; assay: qHTS fluorogenic AP site incision assay (TAMRA/BHQ-2 red substrate, 1536-well); type: biochemical
Description: Recombinant human APE1 and E. coli EndoIV were purified as previously described. Deoxyoligonucleotides containing a tetrahydrofuran (THF) AP site analog, carboxytetramethyl rhodamine (TAMRA), or Black Hole Quencher-2 (BHQ-2), as appropriate (see Figure 1), were purchased from Biosearch Technologies, Inc., (Novato, CA). To create double-stranded DNA substrates, equal volumes of 200 µM solutions of the respective strands in reaction buffer were mixed and incubated at 95°C for 5 min. The annealing mixture was allowed to cool gradually to room temperature. Annealing and assay experiments were performed in the following buffer: 50 mM Tris pH 7.5, 25 mM NaCl, 2 mM MgCl2, 1 mM DTT, 0.01% Tween-20.
Initial optimizations were carried out in 384-well format at a 40 µL total reaction volume. Briefly, 30 µL of APE1 were pipetted into the plate and incubated at room temperature for 10 min; subsequently, 10 µL of substrate were added to start the reaction. The final assay concentrations of the enzyme and substrate were 0.75 nM and 50 nM, respectively. Kinetic fluorescence data were collected on a ViewLux high-throughput CCD imager (Perkin Elmer, Waltham, MA) equipped with standard FITC (excitation filter 480 nm and emission filter 530 nm) or BODIPY (excitation filter 525 nm and emission filter 598 nm) optics.
Three µl of reagents (buffer in columns 3 and 4 as negative control and APE1 in columns 1, 2, 5–48) were dispensed into a 1536-well plate. Compounds (DMSO solutions) and control (DMSO only) (23 nL) were transferred via Kalypsys pintool equipped with 1536-pin array. The plate was incubated for 15 min at room temperature, and then 1 µL of substrate (50 nM final concentration) was added to start the reaction. Library plates were screened from the lowest to highest concentration.
Screening data were corrected and normalized, and concentration–effect relationships were derived by using in-house developed, publicly available algorithms (http://www.ncgc.nih.gov/pub/openhts/curvefit/). Percent activity was computed after normalization against the uninhibited, or neutral, control (64 wells, entire columns 1 and 2) and the no-enzyme, or 100% inhibited, control (64 wells, entire columns 3 and 4), respectively. A four parameter Hill equation was fitted to the concentration-response data by minimizing the residual error between the modeled and observed responses.

E. coli EndoIV = target: T2, E. coli EndoIV (Escherichia coli, UniProt P0A6C1); assay: E. coli Endonuclease IV (EndoIV) profiling assay; type: biochemical
T2 construct: made in house
Description: EndoIV enzyme and substrate (same as that used with APE1) optimization tests were initially performed at a 40 µL final volume in a 384-well format. Reaction concentrations of 2 nM EndoIV and 50 nM DNA substrate were selected for subsequent experiments. For running the assay in 1536-well format, the same protocol as described for APE1 above was followed.

[4] = tested on: AP site cleavage activity of HEK 293T whole cell extract; assay: Whole cell extract AP endonuclease activity assay (HEK 293T); type: biochemical, human; conditions: inhibitor at 100 µM
Description: (§1) The radiotracer assay was performed essentially as described. In brief, prioritized candidate inhibitor compounds from the qHTS assay were incubated at various concentrations (100 µM data shown) with APE1 (100 pg) at room temperature for 15 min in 25 mM Tris pH 7.5, 25 mM NaCl, 1 mM MgCl2, 1 mM DTT and 0.01% Tween-20. At that time, 0.5 pmol ^32P-radiolabeled THF-containing 34 mer double-stranded DNA substrate was added. Incision reactions were then carried out immediately at 37°C for 10 min in a final volume of 10 µL. After the addition of an equal volume of stop buffer (0.05% bromophenol blue and xylene cynol, 20 mM EDTA, 95% formamide), the radiolabeled substrate and product were separated on a standard polyacrylamide denaturing gel and quantified by phosphorimager analysis.
(§2) HEK 293T or HeLa cells – maintained in DMEM with 10% fetal bovine serum and 1% Penicillin-Streptomycin – were harvested, washed with 1× PBS, re-suspended in cold 222 mM KCl, incubated on ice for 30 min, and clarified by centrifugation at 12,000×g for 15 min at 4°C [23]. The supernatant (whole cell extract) was retained, the protein concentration determined using the Bio-Rad Bradford reagent, and aliquots were stored at −80°C. AP endonuclease activity assays were performed with or without candidate inhibitor compounds as described above, except 60 ng HEK 293T or 80 ng of HeLa whole cell extract was used.

[5] = parameters: method as in PMID 18042731; conditions: cited from earlier work
[6] = tested on: AP site cleavage activity of HeLa whole cell extract; assay: Whole cell extract AP endonuclease activity assay (HeLa); type: biochemical, human; conditions: inhibitor at 100 µM
Description: as §1, §2

HeLa cells [7] = assay: AP site measurement in chromosomal DNA; type: cell-based, human; conditions: for AP site damage, inhibitor alone: 5 µM inhibitor alone, relative to control cells; for AP site damage, inhibitor plus MMS: 5 µM inhibitor plus MMS
Description: HeLa cells were treated as above, except only at 5 µM inhibitor where indicated. Following exposure, chromosomal DNA was isolated and steady-state AP site levels were measured using the DNA Damage Quantification Kit from Dojindo Molecular Technologies, Inc. (Gaithersburg, MD) as previously described.

HeLa cells [8] = assay: Cell-based colony survival assay with MMS; parameters: species or system human; conditions: HeLa colony formation, 0.25 mM MMS, 1 or 5 µM inhibitor
Description: To measure colony survival, HeLa cells were plated in 6-well plates 12–20 hr prior to treatment. Cells were treated as follows: (i) exposed only to control medium, (ii) exposed to 0.25 mM MMS alone for 1 hr, (iii) exposed to 1 or 5 µM of the indicated inhibitor compound alone for 4 hr, or (iii) exposed to inhibitor compound alone for 3 hr and then with MMS for an additional 1 hr at 37°C. Following treatment, cells were washed once with 1× PBS and incubated in regular maintenance media (DMEM, 10% FBS) at 37°C for 10–15 days. Colonies formed were fixed in methanol, stained in methylene blue (Sigma), and counted to determine percent survival relative to the untreated controls.

[9] = range of inhibitor concentrations, data not shown, read-out: approximate IC50 in radiotracer assay
[10] = 50 nM substrate, 0.75 nM APE1, read-out: qHTS IC50 (primary screen, APE1)
[11] = 2 nM EndoIV, 50 nM substrate, read-out: Endo IV IC50 (E. coli EndoIV profiling)

T1 sequence (P27695 whole entry): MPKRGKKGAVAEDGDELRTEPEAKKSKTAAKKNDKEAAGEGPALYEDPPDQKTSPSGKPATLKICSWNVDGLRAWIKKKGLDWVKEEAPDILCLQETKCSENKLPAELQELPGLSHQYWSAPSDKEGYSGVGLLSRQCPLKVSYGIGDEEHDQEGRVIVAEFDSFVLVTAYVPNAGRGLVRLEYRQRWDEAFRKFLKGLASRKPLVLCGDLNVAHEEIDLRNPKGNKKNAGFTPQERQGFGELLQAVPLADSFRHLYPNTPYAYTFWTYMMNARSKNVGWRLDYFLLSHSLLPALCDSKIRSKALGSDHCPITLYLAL

SMILES | IC50 [1] [nM] | Gel: inhibition detected or not in radiotracer incision assay (APE1 [2]) | IC50 (APE1 [2]; [9]) [nM] | IC50 (APE1 [3]; [10]) [nM] | IC50 (E. coli EndoIV; [11]) [nM] | activity against EndoIV compared with APE1 (in words) (E. coli EndoIV) | ThO displacement (in words) [1] | inhibition of total AP site cleavage activity [4] | inhibition of total AP site cleavage activity [6] | also measured
Cc1nc(N=Nc2cc(S(=O)(=O)O)c3cc([N+](=O)[O-])cc(S(=O)(=O)O)c3c2)c(COP(=O)(O)O)c(C=O)c1O [PPNDS tetrasodium] | 10000 | No | > 50000 | 2800 | 16000 | – | – | – | – | –
O=C(O)C1=CC(=C(c2ccc(O)c(C(=O)O)c2)c2ccc(O)c(C(=O)O)c2)C=CC1=O [aurintricarboxylic acid] | 1300 | Yes | – | 55 | 25000 | completely inactive or weakly active | – | – | – | APE1 inhibition in fluorogenic assay (in words) (APE1 [3]): low nanomolar range
O=C1c2c(O)ccc(O)c2C(=O)c2c(NCCNCCO)ccc(NCCNCCO)c21 [mitoxantrone] | 350 | Yes | < 500 | 2000 | 2000 | similarly potent against each endonuclease | positive | – | – | –
O=C(O)c1cc[c]([Sb](=[O])([OH])[OH])cc1[N+](=O)[O-] [NSC-13755] | – | – | – | – | – | – | – | complete inhibition | complete inhibition | outcome in cell-based experiments [5]: fail in cell-based experiments
C=C/C(C)=C/[C@@]1(C)SC(=O)C(C)=C1O [thiolactomycin] | > 57000 | Yes | 500 to 2000 | 1000 | 20000 | completely inactive or weakly active | weak or no displacement activity | no effect | no effect | ThO displacement (in words) ([1]; listed as Thiolactomycin): does not affect ThO displacement
NC(Cc1cc(O)c(O)cc1O)C(=O)O (racemic) [6-hydroxy-DL DOPA, 6-hydroxy-DL-DOPA] | 7900 | Yes | – | – | – | completely inactive or weakly active | – | complete inhibition | complete inhibition | IC50 (APE1 [2]): < 500 nM; AP site damage, inhibitor alone (HeLa cells [7]): increased AP site damage relative to the control cells; AP site damage, inhibitor plus MMS (HeLa cells [7]): potentiated the genotoxic potential of MMS; percent cell killing, MMS plus inhibitor relative to alkylator or inhibitor alone (HeLa cells [8]): greater than additive increase; IC50 (APE1 [3]): 110 nM; IC50 (E. coli EndoIV): 10000 nM
CN(N=O)c1ccc(O)c(O)c1 [methyl 3,4-dephostatin, methyl-3,4-dephostatin] | 14000 | Yes | 500 to 2000 | 500 | 8900 | completely inactive or weakly active | – | no effect | no effect | –
CC(=O)[C@]1(O)Cc2c(O)c3c(c(O)c2[C@@H](O[C@H]2C[C@H](N)[C@H](O)[C@H](C)O2)C1)C(=O)c1ccccc1C3=O [idarubicin] | – | – | – | – | – | – | strong ThO displacement profiles | – | – | –
Cn1cc(NC(=O)c2cc(NC(=O)c3cc(NC=O)cn3C)cn2C)cc1C(=O)NCCC(=N)N [distamycin] | – | – | – | – | – | – | strong displacement activity | – | – | –
CC(=O)OCC1=C(C(=O)O)N2C(=O)[C@@H](NC(=O)CSc3ccncc3)[C@H]2SC1 [cephapirin sodium] | > 57000 | No | > 50000 | 8900 | 16000 | similarly potent against each endonuclease | – | – | – | –
Nc1c(S(=O)(=O)O)cc(Nc2ccc(Nc3nc(Cl)nc(Nc4cccc(S(=O)(=O)O)c4)n3)c(S(=O)(=O)O)c2)c2c1C(=O)c1ccccc1C2=O [Reactive Blue 2] | 8900 | Yes | < 500 | 250 | 10000 | completely inactive or weakly active | – | ≥ 80% | ≥ 80% | AP site damage, inhibitor alone (HeLa cells [7]): increased AP site damage relative to the control cells; AP site damage, inhibitor plus MMS (HeLa cells [7]): potentiated the genotoxic potential of MMS; percent cell killing, MMS plus inhibitor relative to alkylator or inhibitor alone (HeLa cells [8]): greater than additive increase
CO/N=C(\C(=O)N[C@@H]1C(=O)N2C(C(=O)O)=C(CSc3nc(=O)c(=O)[nH]n3C)CS[C@H]12)c1csc(N)n1 [ceftriaxone sodium] | > 57000 | No | > 50000 | 2200 | 11000 | – | – | – | – | –
N#C/C(=C\c1ccc(O)c(O)c1)C(=O)c1ccc(O)c(O)c1 [Tyrphostin AG 538] | 20000 | Yes | 500 to 2000 | 280 | 280 | similarly potent against each endonuclease | weak or no displacement activity | mild inhibition | mild inhibition | –
COc1cccc2c1C(=O)c1c(O)c3c(c(O)c1C2=O)C[C@@](O)(C(=O)CO)C[C@@H]3O[C@H]1C[C@H](N)[C@H](O)[C@H](C)O1 [doxorubicin] | – | – | – | – | – | – | strong ThO displacement profiles | – | – | –
